Measured values reported in paper PMC5653977 (EMBO Molecular Medicine, 2017).
Where two headings read alike, the source gives them in different places.

Tested on: NRG1-ERBB4 signaling
Experiment: Nrg1-ERBB4-PIK3R1 split TEV co-culture compound screen of the NIH Clinical Collection
Assay type: cell-based, human
Description: For our HTS‐compatible split TEV assay approach, human full‐length ERBB4‐Cyt1 was fused to the NTEV fragment, a TEV protease cleavage site (tevS) and the artificial co‐transcriptional activator Gal4‐VP16 (ERBB4‐NTEV‐tevS‐GV); human PIK3R1 was fused to the CTEV fragment (PIK3R1‐CTEV) (Fig 1A). Upon ERBB4 activation, PIK3R1 is recruited to the receptor resulting in a reconstituted protease activity that cleaves off GV. In turn, released GV translocates to the nucleus and binds to upstream activating sequences (UAS) to activate the transcription of a firefly luciferase reporter gene (Fig 1A). A constitutively expressed Renilla luciferase driven under the control of the human thymidine kinase (TK) promoter was used as control to address off‐target effects related to toxicity.
For small molecule screening, the NIH‐NCC Clinical Collection library (sets NCC‐003 and NCC‐201) was used containing 727 small molecules that are FDA‐approved and have a history in clinical applications (www.nihclinicalcollection.com). A Hamilton Labstar robot connected to 37 and 4°C incubators for cell incubation and compound storage and application (Cytomat automated incubator, ThermoScientific) and to a luciferase reader (Berthold Technologies) was used to automatically perform the screening. […] Each batch was screened three times.
For one 96‐well plate, 4 × 10^6 PC12 cells were harvested and diluted in 5 ml assay medium (phenol red‐free DMEM (low glucose, Life Technologies), 10% FCS, 5% HS, no antibiotics). The split TEV assay plasmids (2 μg pcDNA3_ERBB4‐NTEV‐tevS‐GV‐2xHA, 2 μg pTag4C_PIK3R1‐CTEV‐2xHA, 2 μg p5xUAS_firefly luciferase, 2 μg pTK_Renilla luciferase, and 0.5 μg pECFP‐C1 for examining transfection efficiency) were diluted in 2.5 ml Opti‐MEM (Life Technologies) and vortexed. In parallel, 20 μl of the transfection reagent Lipofectamine 2000 was diluted in 2.5 ml Opti‐MEM and vortexed.
For plating of one 96‐well plate, 10 ml suspension, containing the 4 × 10^6 in solution‐transfected cells, was placed in the bubble paddle reservoir of the Hamilton Cellstar robot. 100 μl was seeded per 96‐well using the 96‐tip pipetting head. The homogeneity of the cell suspension was guaranteed over time by mild stirring using the paddling device inside the reservoir. For five plates each, 50 ml of additional cell suspension was used to allow for losses of inaccessible volume.
The cells were allowed to express the plasmids for 24 h before compounds were added. Proper expression and transfection efficiency were verified by ECFP expression on a clear control plate. The compounds were applied in a final concentration of 10 μM using DMSO as diluent. […] Thirty minutes later, 10,000 Nrg1‐expressing PC12 cells in 100 μl assay medium were seeded on top. 24 h after addition of the compounds, the cells were lysed using 40 μl Passive Lysis buffer (Promega) and subjected to a Dual Luciferase Assay (Promega) according to the manufacturer's instructions. The data were analyzed in R Bioconductor using the package cellHTS2 (http://www.bioconductor.org/packages/devel/bioc/html/cellHTS2.html), assessed using the z‐score, and visualized using the program Mondrian (http://stats.math.uni-augsburg.de/mondrian/).

[1] = compound screen of the NIH Clinical Collection, sheet raw data NCC-003, compounds ranked by Z-score
[2] = NIH Clinical Collection NCC-003 raw data, compounds ranked by Z-score, 'flagged' given instead of a Z-score
[3] = compounds at 10 μM, 24 h, PC12 split TEV assay cells co-cultured with Nrg1-expressing PC12 cells, analysed with cellHTS2

Cc1ncc([N+](=O)[O-])n1CC(C)O (stereo not shown)
Z-SCORE [1]: 1.35

CN1CCN(CCCN2c3ccccc3Sc3ccc(Cl)cc32)CC1
Z-SCORE [1]: -0.47

Cl.Nc1c2c(nc3c1CCC3)CCCC2
Z-SCORE [1]: -0.08

Clc1cccc(Cl)c1NC1=NCCN1
Z-SCORE [1]: 0.34

CC(C)c1ccc2c(c1)c(SC(C)(C)C)c(CC(C)(C)C(=O)O)n2Cc1ccc(Cl)cc1
Z-SCORE [1]: 0.23

C[C@]12CC[C@@H]3c4ccc(OS(=O)(=O)[O-])cc4CC[C@H]3[C@@H]1CCC2=O.[Na+]
Z-SCORE [1]: 0.37

O=C1N(c2ccccc2)c2ccccc2C1(Cc1ccncc1)Cc1ccncc1
Z-SCORE [1]: -0.78

Nc1ccn([C@@H]2O[C@H](CO)[C@@H](O)[C@@H]2O)c(=O)n1
Z-SCORE [2]: -1.99

Cc1c(O)c(=O)ccn1C
Z-SCORE [1]: 0.19

CCc1oc2ccccc2c1C(=O)c1cc(Br)c(O)c(Br)c1
Z-SCORE [1]: 0.47

COc1cc(-c2ccc(=O)[nH]n2)ccc1OC(F)F
Z-SCORE [1]: 0.32

O=C(NCCN1CCOCC1)c1ccc(Cl)cc1
Z-SCORE [1]: -0.92

O=C1N[C@H](C(=O)O)CS1
Z-SCORE [1]: 0.84

CCN(CC)CC1CCCCN1CC(=O)N1c2ccccc2C(=O)Nc2cccnc21 (stereo not shown)
Z-SCORE [1]: 1

CS(=O)(=O)O.O=C1CC2(CCCC2)CC(=O)N1CCNCC1COc2ccccc2O1 (stereo not shown)
Z-SCORE [1]: 0.35

Clc1ccc2c(c1)CCc1cccnc1C2=C1CCNCC1
Z-SCORE [1]: 0.4

Cl.Nc1c2c(nc3ccccc13)CCCC2
Z-SCORE: 1.29

CO[C@H]1O[C@@H]2O[C@@]3(C)CC[C@H]4[C@H](C)CC[C@@H]([C@H]1C)[C@@]24OO3
Z-SCORE [1]: -1.01

OC[C@H]1O[C@@H](n2cnc3c(N[C@H]4CCC[C@@H]4O)ncnc32)[C@H](O)[C@@H]1O
Z-SCORE [1]: -0.71

O=C([O-])Cc1ccccc1Nc1c(Cl)cccc1Cl.[Na+]
Z-SCORE [1]: 0.02

Oc1cc2c(cc1O)[C@@H]1c3ccccc3CN[C@H]1CC2
Z-SCORE [1]: 0.99

C=CC1=C(C(=O)O)N2C(=O)[C@@H](NC(=O)/C(=N\O)c3csc(N)n3)[C@H]2SC1
Z-SCORE [1]: 0.68

C[C@]12C=CC(=O)C=C1CC[C@@H]1[C@@H]2[C@@H](O)C[C@@]2(C)[C@H]1CC[C@]2(O)C(=O)COC(=O)CCC(=O)[O-].[Na+]
Z-SCORE [1]: 0.67

C[C@H](N[C@@H](CCc1ccccc1)C(=O)O)C(=O)N1CCC[C@H]1C(=O)O
Z-SCORE [1]: -0.43

CC(=O)SCC(Cc1ccccc1)C(=O)NCC(=O)OCc1ccccc1 (stereo not shown)
Z-SCORE [1]: 0

CCC(C)(C)NC(=Nc1cccnc1)NC#N
Z-SCORE [1]: 0.49

CN(Cc1cnc2nc(N)nc(N)c2n1)c1ccc(C(=O)N[C@@H](CCC(=O)O)C(=O)O)cc1
Z-SCORE [1]: 0.85

CNC(=N)NCCC[C@H](N)C(=O)O
Z-SCORE: -0.42

CC[C@@H](C(N)=O)N1CCCC1=O
Z-SCORE [1]: -0.28

CC1(C)S[C@@H]2[C@H](/N=C/N3CCCCCC3)C(=O)N2[C@H]1C(=O)O
Z-SCORE [1]: 1.1

Cc1cccc(CCN2CCC(C(=O)c3ccc(NS(C)(=O)=O)cc3)CC2)n1.Cl.Cl
Z-SCORE [1]: -0.17

CC(=O)NCCCCCCNC(C)=O
Z-SCORE [1]: 1.08

CCOC(=O)C1(CCCCCCOc2ccc(Cl)cc2)CO1 (stereo not shown)
Z-SCORE [1]: 0.96

N=C(N)NC(=O)c1nc(Cl)c(N)nc1N
Z-SCORE [1]: 0.85

CN1CC(=O)N2[C@H](c3ccc4c(c3)OCO4)c3[nH]c4ccccc4c3C[C@@H]2C1=O
Z-SCORE [1]: 0.97

CCCc1nc2c(C)cc(-c3nc4ccccc4n3C)cc2n1Cc1ccc(-c2ccccc2C(=O)O)cc1
Z-SCORE [1]: 0.38

CCN(CC)C(=S)SSC(=S)N(CC)CC
Z-SCORE [1]: -0.22

COc1ccc(/C=C/C(=O)Nc2ccccc2C(=O)O)cc1OC
Z-SCORE [2]: -1.17

CS(=O)(=O)c1ccc(-c2cc(Br)sc2-c2ccc(F)cc2)cc1
Z-SCORE [1]: 0.49

CCCCC(=O)N(Cc1ccc(-c2ccccc2-c2nnn[nH]2)cc1)[C@H](C(=O)O)C(C)C
Z-SCORE [1]: -0.23

Br.COc1ccc2c(c1)[C@@]13CCCC[C@H]1[C@@H](C2)N(C)CC3
Z-SCORE [2]: -1.1

CC(Cc1ccccc1)(NC(=O)CN)c1ccccc1 (racemic)
Z-SCORE [1]: 0.97

CNCC(O)c1ccc(O)c(O)c1.Cl (racemic) [(+/-)-Epinephrine hydrochloride, reference compound]
Z-SCORE [3]: -0.69

Cl.NCC(O)c1ccc(O)c(O)c1 (racemic) [(+/-)-NOREPINEPHRINE HYDROCHLORIDE, reference compound]
Z-SCORE [3]: 1.11

Cl.OC1CCCCC1N1CCC(c2ccccc2)CC1 (racemic) [(±)-Vesamicol hydrochloride]
Z-SCORE [1]: -0.04

COC(=O)C1=C(C)NC(C)=C(C(=O)O[C@@H]2CCCN(Cc3ccccc3)C2)[C@@H]1c1cccc([N+](=O)[O-])c1.Cl (racemic) [BENIDIPINE HCl]
Z-SCORE [2]: -1.41

CC(C)(S)C(N)C(=O)O (racemic) [DL-PENICILLAMINE, reference compound]
Z-SCORE [3]: 2.02

O=C1c2c(O)cc(O)cc2OC(c2ccc(O)c(O)c2)C1O (racemic) [TAXIFOLIN-(+/-)]
Z-SCORE [1]: -0.12

COc1ccc([C@@H]2Sc3ccccc3N(CCN(C)C)C(=O)[C@@H]2OC(C)=O)cc1.Cl (relative stereo) [(+)-CIS-DILTIAZEM HYDROCHLORIDE, reference compound]
Z-SCORE [3]: -0.13

C[N+]1(C)CCN(c2ccccc2)CC1.[I-] [1,1-DIMETHYL-4-PHENYLPIPERAZINIUM IODIDE]
Z-SCORE [1]: 2.45

c1ccc(Cn2ccnc2)cc1 [1-BENZYLIMIDAZOLE]
Z-SCORE [1]: -0.1

Nc1ccn([C@H]2CC[C@@H](CO)O2)c(=O)n1 [2',3'-DIDEOXYCYTIDINE]
Z-SCORE [1]: 1.38

O=c1[nH]cnc2c1ncn2[C@H]1CC[C@@H](CO)O1 [2',3'-DIDEOXYINOSINE]
Z-SCORE [1]: -0.13

NCCc1ccccn1 [2-(2-AMINOETHYL)PYRIDINE]
Z-SCORE [1]: 2.15

Nc1nc(Cl)nc2c1ncn2[C@@H]1O[C@H](CO)[C@@H](O)[C@H]1O [2-CHLOROADENOSINE]
Z-SCORE [1]: 0.61

Nc1nc(Cl)nc2c1ncn2[C@H]1C[C@H](O)[C@@H](CO)O1 [2-Chloro-2'-deoxyadenosine, reference compound]
Z-SCORE [2]: -3.5 | Z-SCORE [3]: -3.5

Nc1ncnc2c1ncn2[C@@H]1O[C@H](CO)C[C@H]1O [3'-Deoxydenosine, reference compound]
Z-SCORE [1]: 5.88 | Z-SCORE [3]: 5.88

OCc1cccnc1 [3-PYRIDINEMETHANOL]
Z-SCORE [2]: -1.1

CC(=O)O.NCc1ccc(S(N)(=O)=O)cc1 [4-(AMINOMETHYL)BENZENESULFONAMIDE ACETATE, reference compound]
Z-SCORE [3]: 0.49

Nc1ccc(O)c(C(=O)O)c1 [5-Amino-2-hydroxy-benzoic acid]
Z-SCORE [1]: 1.62

Nc1ncn([C@@H]2O[C@H](CO)[C@@H](O)[C@H]2O)c(=O)n1 [5-Azacytidine, reference compound]
Z-SCORE [3]: flagged

Nc1nc(=O)[nH]cc1F [5-FLUOROCYTOSINE]
Z-SCORE [1]: -0.59

O=c1[nH]cc(F)c(=O)[nH]1 [5-FLUOROURACIL, reference compound]
Z-SCORE [3]: -1.82

COc1ccc2[nH]cc(CCN)c2c1 [5-Methoxytryptamine]
Z-SCORE [1]: 0.65

CCCCCCCCCOc1ccc2[nH]cc(CCN)c2c1 [5-Nonyloxytryptamine]
Z-SCORE [2]: flagged

O=c1ncc(F)c[nH]1 [5-fluoro-2-pyrimidone]
Z-SCORE [1]: -0.03

Nc1ccc2cn[nH]c2c1 [6-AMINOINDAZOLE]
Z-SCORE [1]: 0.45

O=c1cnn([C@@H]2O[C@H](CO)[C@@H](O)[C@H]2O)c(=O)[nH]1 [6-AZAURIDINE]
Z-SCORE [2]: -1.32

O=[N+]([O-])c1cccc2cn[nH]c12 [7-NITROINDAZOLE]
Z-SCORE [1]: 0.29

CCCCC(=O)O[C@H]1CC[C@H]2[C@@H]3CCc4cc(O)ccc4[C@H]3CC[C@]12C [17-BETA-ESTRADIOL 17-VALERATE, reference compound]
Z-SCORE [3]: -0.44

C#C[C@]1(OC(C)=O)CC[C@H]2[C@@H]3CCC4=CC(=O)CC[C@@H]4[C@H]3CC[C@@]21C [19-NORETHINDRONE ACETATE, reference compound]
Z-SCORE [3]: -0.99
